{
  "source": "patent US20140273210A1",
  "about": "“HIGH […] […] FOR CELL CULTURES AND APPLICATIONS THEREOF” (Board Of Regents, The University Of Texas System, priority 2013, published 2014)",
  "system": "vascular smooth muscle cells",
  "assay": "LDH release cytotoxicity assay with or without cyclic mechanical strain",
  "settings": "10 nM mithramycin, 24 hours",
  "procedure": "A colorimetric cytotoxicity assay was used assess the presence of cell death during mechanical loading/drug treatment (Promega). This assay measures release of lactate dehydrogenase (LDH) activity and was used according to the manufactures directions. Mechanical stretch to cells in culture using the various waveforms were applied to cell culture. To confirm the biocompatibility of the cells in the system, cell death was measured through an LDH release assay. The maximal strain of 5% was set to be identical between the groups. After 4 hours of mechanical loading the cytotoxicity of the mechanical load was used using a LDH release assay.\nToxicity testing in the presence of mechanical load. Toxicity of chemotherapeutic drug mithramycin is tested in the presence or absence of mechanical strain. Specifically, cyclic mechanical load of 5% maximal strain was applied to vascular smooth muscle cells in the presence or absence of 10 nM mithramycin for 24 hours. Experiments of vascular smooth muscle cells in the presence or absence of 10 nM mithramycin without mechanical strains were also performed for comparison during the same time period. Release of lactate dehydrogenase (LDH) was measured as indication of cell death and the results were plotted in FIG. 11.",
  "data": [
    {"substance": "mithramycin", "values": [
      {"measurement": "Release of lactate dehydrogenase (LDH) compared to control cells", "setting": "absence of mechanical strain", "value": "about the same"},
      {"measurement": "Increase in LDH release from the cells compared to the control", "setting": "cyclic mechanical load of 5% maximal strain", "value": "four folds increase"}
    ]}
  ]
}
